Laboratory results as given in patent publication US20160137746A1, “METHODS FOR TREATING HIGH CARDIOVASCULAR RISK PATIENTS WITH HYPERCHOLESTEROLEMIA” (Sanofi Biotechnology, priority 2014, published 2016).
Values joined by “and” are separate entries in the source; they are usually repeats but may differ in a detail not shown here. Equal entries are not always repeated.

Columns and labels:
[1] = tested on: high cardiovascular risk patients with hypercholesterolemia; assay: ODYSSEY LONG TERM: lipid efficacy of alirocumab 150 mg Q2W vs placebo; format: in vivo, human
Description: Patients were stratified according to heFH population, prior history of MI or ischemic stroke, statin treatment and geographic region. Patients at high cardiovascular risk were defined as 1) having heFH (who may or may not have CHD/CHD risk equivalents) or 2) no prior diagnosis of heFH but having hypercholesterolemia together with established CHD or CHD risk equivalents.
Primary analyses of efficacy endpoints were conducted using an ITT approach (based on the ITT population defined above), including all lipid data, regardless of whether the patient was continuing therapy or not. This corresponds to ITT estimands, defined for primary and key secondary endpoints. In addition, analyses were also conducted using an on-treatment approach (based on the mITT population defined above), including lipid data collected during the efficacy treatment period. This corresponds to on-treatment estimands of key secondary endpoints.
With regards to the primary efficacy analysis (ITT approach), the percent change in calculated LDL-C from baseline to Week 24 was analyzed using a mixed-effect model with repeated measures (MMRM) approach. All post-baseline data available from Week 4 to Week 52 analysis windows were used and missing data were accounted for by the MMRM. […] This model provided baseline adjusted least-squares means (LSmeans) estimates at Week 24 for both treatment groups with their corresponding SEs and 95% confidence intervals.
Continuous secondary variables anticipated to have a normal distribution (i.e., lipids other than TGs and Lp(a)) were analyzed using the same MMRM model as for the primary endpoint. […] Combined estimate for mean in both treatment groups, as well as the differences of these estimates, with their corresponding SEs, 95% Cls and p-value were provided (through SAS MIANALYZE procedure).
Binary secondary efficacy endpoints were analyzed using multiple imputation approach for handling of missing values followed by stratified logistic regression with treatment group as main effect and corresponding baseline value(s) as covariate, stratified by randomization factors (as per IVRS). Combined estimates of odds ratio versus placebo, 95% CI, and p-value were provided (through SAS MIANALYZE procedure).

[2] = tested on: high cardiovascular risk patients with hypercholesterolemia; settings: in vivo
Description: Safety parameters (adverse events [including adjudicated cardiovascular events], laboratory data, vital signs, and ECG) were assessed throughout the study.
Safety endpoints assessed in this trial were: cardiovascular events; allergic events; local tolerability at injection site; other adverse events (including hemolytic anemia); laboratory tests: urinalysis, hematology (red blood cell count, red blood cell distribution width (RDW), reticulocyte count, hemoglobin, hematocrit, platelets, white blood cell count with differential blood count), standard chemistry (sodium, potassium, chloride, bicarbonate, calcium, phosphorous, urea nitrogen, creatinine, uric acid, total protein, albumin, LDH, γ Glutamyl Transferase [γGT]), Vitamin E (alpha tocopherol) and other Fat Soluble Vitamins, cortisol (and reflexive ACTH levels, as needed, followed by ACTH stimulation test, as needed), Gonadal Hormone Assessments, Hepatitis C antibody, liver panel (ALT, AST, ALP, and total bilirubin), and CPK; vital signs including heart rate and blood pressure; and 12-lead ECG.
The safety population included all randomized patients who received at least one dose or part of a dose of the double-blind IMP.
Safety analyses were descriptive, performed on the safety population according to treatment actually received. The safety analysis focused on the TEAE period defined as the time from the first dose of double-blind injection up to 70 days after the last double-blind injection. TEAE which developed, worsened or became serious or PCSA occurring after the patient's first injection in the open-label extension study (LTS13643) were not considered in the TEAE period. TEAE period was truncated at the common study cut-off date.

[3] = Week 24, total PCSK9 levels at or above the median
[4] = Week 24, total PCSK9 levels below the median
[5] = Week 24, ITT population, MMRM, alirocumab 150 Q2W
[6] = subgroup baseline HDL-C <40 mg/dL/<1.04 mmol/L, ITT
[7] = subgroup baseline HDL-C ≧40 mg/dL/≧1.04 mmol/L, ITT
[8] = subgroup baseline calculated LDL-C <100 mg/dL/<2.59 mmol/L, ITT
[9] = subgroup baseline calculated LDL-C ≧160 mg/dL/≧4.14 mmol/L, ITT
[10] = subgroup baseline calculated LDL-C ≧100 to <130 mg/dL/≧2.59 to <3.37 mmol/L, ITT
[11] = subgroup baseline calculated LDL-C ≧130 to <160 mg/dL/≧3.37 to <4.14 mmol/L, ITT

In the case of “Alirocumab: human anti-PCSK9 antibody; HCVR SEQ ID NO:1, LCVR SEQ ID NO:6; CDRs SEQ ID NOs 2/3/4/7/8/10”, the “Calculated LDL-C percent change, treatment effect versus placebo” value ([1]; Week 24, patients with baseline LDL-C ≧160 mg/dL) is reported as −41.3%, the “Calculated LDL-C percent change, LS mean difference vs placebo” value [1, 3] is reported as −66.0% and the “Calculated LDL-C, LS mean percent change from baseline” value [1, 3] is reported as −62.1%. For the same substance, the “Calculated LDL-C percent change, LS mean difference vs placebo” value [1, 4] was −57.3%, the “Calculated LDL-C, LS mean percent change from baseline” value [1, 4] was −60.1% and the “Calculated LDL-C percent change, LS mean difference vs placebo” value ([1]; Week 24, women) was −56.6%. For the same substance, the “Calculated LDL-C, LS mean percent change from baseline” value ([1]; Week 24, women) was −53.4%, the “Apo A1, LS mean (SE) change from baseline to Week 24 (%)” value ([1]; Week 24, ITT population) was 4.0 (0.4) % and the “Apo B, LS mean (SE) change from baseline to Week 24 (%)” value ([1]; Week 24, ITT population) was −52.8 (0.7) %. For the same substance, the “Fasting triglycerides, combined estimate for adjusted mean (SE) change from baseline to Week 24 (%)” value ([1]; Week 24, ITT population) was −15.6 (0.8) %, the “HDL-C, LS mean (SE) change from baseline to Week 24 (%)” value ([1]; Week 24, ITT population) was 4.0 (0.4) % and the “Lipoprotein (a), combined estimate for adjusted mean (SE) change from baseline to Week 24 (%)” value ([1]; Week 24, ITT population) was −29.3 (0.7) %. For the same substance, the “Non-HDL-C, LS mean (SE) change from baseline to Week 24 (%)” value ([1]; Week 24, ITT population) was −51.6 (0.6) %, the “Proportion (%) of patients reaching calculated LDL-C levels at Week 24: <70 mg/dL (regardless of risk)” value ([1]; Week 24, ITT population) was 79.3% and the “Proportion (%) of patients reaching calculated LDL-C levels at Week 24: <70 mg/dL (very high risk) or <100 mg/dL (high risk)” value ([1]; Week 24, ITT population) was 80.7%. The “Total cholesterol, LS mean (SE) change from baseline to Week 24 (%)” value ([1]; Week 24, ITT population) was −37.8 (0.5) %, the “Calculated LDL-C Week 24 percent change from baseline, LS mean difference (SE) vs placebo” value ([1]; Week 24, ITT population, MMRM) was −61.9 (1.3) % and the “Calculated LDL-C percent change from baseline, LS mean (SE)” value (“Calculated LDL-C percent change … (SE)” below) [1, 5] was −61.0 (0.7) % and −61.0%. For the same substance, the “Calculated LDL-C value (absolute level), LS mean (SE)” value [1, 5] was 48.3 (0.9) mg/dL, the “Calculated LDL-C value, LS mean (SE)” value [1, 5] was 1.252 mmol/L and the “LS mean (SE) change from baseline to Week 24 in measured LDL-C” value ([1]; Week 24, ITT, LDL-cholesterol measured by beta-quantification) was −57.8 (0.8) %. For the same substance, the “Apo-B - Percent change from baseline to Week 24, LS mean difference vs. placebo” value ([1]; Week 24, On-treatment) was “placebo of −55.5%”, the “Calculated LDL-C - Percent change from baseline to Week 24, LS mean difference vs. placebo” value ([1]; Week 24, On-treatment) was “placebo of −63.5%” and the “Non-HDL-C - Percent change from baseline to Week 24, LS mean difference vs. placebo” value ([1]; Week 24, On-treatment) was “placebo of −53.7%”. The “LS mean absolute LDL-C reduction” value ([1]; Week 24, subgroup baseline calculated LDL-C <100 mg/dL/<2.59 mmol/L, ITT) was -51.6 mg/dL, the “LS mean absolute LDL-C reduction” value ([1]; Week 24, subgroup baseline calculated LDL-C ≧160 mg/dL/≧4.14 mmol/L, ITT) was -115.8 mg/dL and the “LS mean absolute LDL-C reduction” value ([1]; Week 24, subgroup baseline calculated LDL-C ≧100 to <130 mg/dL/≧2.59 to <3.37 mmol/L, ITT) was -71.2 mg/dL. For the same substance, the “LS mean absolute LDL-C reduction” value ([1]; Week 24, subgroup baseline calculated LDL-C ≧130 to <160 mg/dL/≧3.37 to <4.14 mmol/L, ITT) was -85.3 mg/dL, the “Calculated LDL-C percent change … (SE)” value ([1]; Week 36, ITT population, MMRM, alirocumab 150 Q2W) was −59.5% and the “Calculated LDL-C percent change … (SE)” value ([1]; Week 52, ITT population, MMRM, alirocumab 150 Q2W) was −56.8%. For the same substance, the “Additional LDL-C reduction from baseline versus placebo” value ([1]; Week 78) was 56%, the “Percentage change from baseline to Week 78 in calculated LDL-C” value ([1]; Week 78, ITT population) was −52.4 (0.9) % and the “Percentage change from baseline to Week 78 in calculated LDL-C, LS mean difference (SE) vs placebo” value ([1]; Week 78, ITT population) was −56.0 (1.6) %. For the same substance, the “Percent decrease in LDL cholesterol” value ([1]; intention-to-treat, Week 24 (final analysis)) was 61%, the “Percent change from baseline in calculated LDL-C at week 24, LS mean difference (SE) vs placebo” value [1, 6] was −66.1 (2.8) % and the “Percent change from baseline in calculated LDL-C at week 24, LS means (SE)” value [1, 6] was −65.5 (1.6) %. For the same substance, the “Percent change from baseline in calculated LDL-C at week 24, LS mean difference (SE) vs placebo” value [1, 7] was −60.8 (1.4) %, the “Percent change from baseline in calculated LDL-C at week 24, LS means (SE)” value [1, 7] was −59.9 (0.8) % and the “Percent change from baseline in calculated LDL-C at week 24, LS mean difference (SE) vs placebo” value [1, 8] was −75.0 (2.2) %. The “Percent change from baseline in calculated LDL-C at week 24, LS means (SE)” value [1, 8] was −61.3 (1.3) %, the “Percent change from baseline in calculated LDL-C at week 24, LS mean difference (SE) vs placebo” value [1, 9] was −41.3 (3.3) % and the “Percent change from baseline in calculated LDL-C at week 24, LS means (SE)” value [1, 9] was −59.5 (1.9) %. For the same substance, the “Percent change from baseline in calculated LDL-C at week 24, LS mean difference (SE) vs placebo” value [1, 10] was −62.5 (2.0) %, the “Percent change from baseline in calculated LDL-C at week 24, LS means (SE)” value [1, 10] was −62.0 (1.2) % and the “Percent change from baseline in calculated LDL-C at week 24, LS mean difference (SE) vs placebo” value [1, 11] was −54.6 (2.9) %. The “Percent change from baseline in calculated LDL-C at week 24, LS means (SE)” value [1, 11] was −59.8 (1.7) %, the “TEAE Lower respiratory tract infection (LRTI), % of patients” value [2] was 3.0% (46) and the “TEAE Upper respiratory tract infection (URTI), % of patients” value [2] was 7.0% (109). For the same substance, the “TEAE Urinary tract infection, % of patients” value [2] was 5.2% (81) and the “TEAEs by System-Organ-Class: Infections and infestations, % of patients” value [2] was 45.5% (705).
